This is an account of results in US10844049B2, “GLP-1R agonists and uses thereof” (QILU REGOR THERAPEUTICS INC., priority 2018, dated 2020).

Assay [1] addresses T1, GLP1R (Homo sapiens, UniProt P43220). Briefly: GLP1R cAMP HTRF assay, HEK293/GLP-1R/CRE/Luc (HEK293T cells). The format is cell-based. The method in brief:
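cAMP accumulation via HTRF after 30 min, 37 °C exposure of 1000 receptor-expressing cells/well to compound (0.5% DMSO final) in IBMX (500 μM)/0.1% BSA DPBS.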

The target of assay [2] is T1, GLP1R. Briefly: GLP1R cAMP assay, CHO cells stably expressing human GLP-1R. The format is cell-based. How it is done: GLP-1R-mediated agonist activity was determined with a cell-based functional assay utilizing an HTRF (Homogeneous Time-Resolved Fluorescence) cAMP detection kit (cAMP Dynamic 2 Assay Kit; CisBio cat #62AM4PEC) that measures cAMP levels in the cell. The method is a competitive immunoassay between native cAMP produced by the cells and exogenous cAMP labeled with the dye d2. The tracer binding is visualized by a mAb anti-cAMP labeled with Cryptate. The specific signal (i.e., energy transfer) is inversely proportional to the concentration of cAMP in either standard or experimental sample.
Varying concentrations of each compound to be tested (in DMSO) were diluted in DMSO to obtain 200× compound working solution first and then 50 nl compounds were added to a white 384-well assay plate (Greiner 784075) with ECHO. The final DMSO concentration was 0.5%. The compound concentration range may be adjusted at any time.
Cells were removed from cryopreservation, re-suspended in 5 mL of Dulbecco's Phosphate Buffered Saline (DPBS-Sigma Cat # D8537) and centrifuged at 900 g for 5 min at 22° C. The cell pellet was then re-suspended in 1 mL of assay buffer [DPBS with 500 μM IBMX (Sigma #15879) and 0.1% BSA (Sigma # A1933). IBMX and BSA were freshly added on the day of assay]. A 10 μL sample of the cell suspension was counted on an Invitrogen Countess II to determine cell viability and cell count per mL. The remaining cell suspension was then adjusted with assay buffer to deliver 1000 viable cells per well using a Matrix Combi Multidrop reagent dispenser. 10 μL cell suspensions were added to each well of the assay plate which already contains compound. The plate was sealed and incubated at 37° C. with 5% CO2 for 30 minutes.
Following the 30 minute incubation, 5 μL of labeled d2 cAMP and 5 μL of anti-cAMP antibody (both diluted 1:20 in cell lysis buffer; as described in the manufacturer's assay protocol) were added to each well of the assay plate. The plates w ere then incubated at room temperature and after 60 minutes, changes in the HTRF signal were read with an Envision multi-label plate reader using excitation of 330 nm and emissions of 615 and 665 nm. Raw data were converted to nM cAMP by interpolation from a cAMP standard curve (as described in the manufacturer's assay protocol) and the percent effect was determined relative to a saturating concentration of the full agonist GLP-17-37 (10 nM) included on each plate. EC50 determinations were made from agonist dose-response curves analyzed with a curve fitting program using a 4-parameter logistic dose response equation. […]

Where [3] appears, read: CHO cells stably expressing GLP-1R, read-out: CHO cAMP stable EC50.
Setting [4] is: mean ± spread, read-out: HEK293T cells EC50.
Where [5] appears, read: CHO cells, mean ± spread, read-out: CHO cells EC50.

T1 sequence (P43220 24-463): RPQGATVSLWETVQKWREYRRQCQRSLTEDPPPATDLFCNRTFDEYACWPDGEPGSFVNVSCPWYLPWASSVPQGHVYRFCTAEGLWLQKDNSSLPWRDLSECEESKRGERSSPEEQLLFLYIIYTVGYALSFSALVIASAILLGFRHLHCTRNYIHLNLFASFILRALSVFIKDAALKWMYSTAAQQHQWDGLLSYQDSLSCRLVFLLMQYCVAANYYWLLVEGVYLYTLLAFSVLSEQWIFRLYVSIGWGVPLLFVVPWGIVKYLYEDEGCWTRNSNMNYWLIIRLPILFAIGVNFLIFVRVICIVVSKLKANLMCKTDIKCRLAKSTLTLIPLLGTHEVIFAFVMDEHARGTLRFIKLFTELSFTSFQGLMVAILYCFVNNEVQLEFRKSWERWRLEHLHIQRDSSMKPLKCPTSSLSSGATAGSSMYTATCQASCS

With `N#Cc1ccc(COc2cccc(N3CCC(Cc4nc5ccc(C(=O)O)nc5n4C[C@@H]4CCO4)CC3)n2)c(F)c1` [Compound 227, (S)-2-((l-(6-((4-cyano-2-fluorobenzyl)oxy)pyridin-2-yl)piperidin-4-yl)methyl)-3-(oxetan-2-ylmethyl)-3H-imidazo[4,5-b]pyridine-5-carboxylic acid], the values for the EC50 in assay [1] (read-out: EC50) and in assay [2] (setting [3]) were at most 15 nM and at most 150 nM, respectively.
Turning to `O=C(O)c1ccc2nc(CN3CCC(c4cncc(OCc5ccc(Cl)cc5F)n4)CC3)n(C[C@@H]3CCO3)c2c1` [drawing 60, reference compound], the EC50 in assay [1] (setting [4]) was 10.5 nM; in assay [2] (setting [5]) it was 289 ± 53 nM.
Taken in the same sequence, the figures for `N#Cc1ccc(COc2cccc(C3=CCN(Cc4nc5ccc(C(=O)O)cc5n4C[C@@H]4CCO4)CC3)n2)c(F)c1` [drawing 55] were 0.219 nM and 2.25 nM.
Taken in the same sequence, the figures for `O=C(O)c1ccc2nc(CN3CC=C(c4cccc(OCc5ccc(Cl)cc5F)c4)CC3)n(C[C@@H]3CCO3)c2c1` [drawing 67] were 3.94 nM and 42.6 ± 11.5 nM.
Taken in the same sequence, the figures for `O=C(O)c1ccc2nc(CN3CC=C(c4cncc(OCc5ccc(Cl)cc5F)n4)CC3)n(C[C@@H]3CCO3)c2c1` [drawing 61] were 2.94 nM and 136 ± 32.6 nM.
Take `N#Cc1ccc(COc2cccc(N3CCC(Cc4nc5ccc(C(=O)O)c(F)c5n4C[C@@H]4CCO4)CC3)n2)c(F)c1` [Compound 228, (S)-2-((l-(6-((4-cyano-2-fluorobenzyl)oxy)pyridin-2-yl)piperidin-4-yl)methyl)-7-fluoro-1-(oxetan-2-ylmethyl)-1H-benzo[d]imidazole-6-carboxylic acid]: the concentration for a half-maximal effect (EC50) was at most 15 nM in assay [1] (read-out: EC50) and at most 150 nM in assay [2] (setting [3]).
Regarding `N#Cc1ccc(COc2nc(C3CCN(Cc4nc5ccc(C(=O)O)cc5n4C[C@@H]4CCO4)CC3)ccc2F)c(F)c1` [reference compound], the 50% effective concentration (EC50) turned out to be 5.65 nM in assay [1] (setting [4]) and 463 nM in assay [2] (setting [5]).
Taken in the same sequence, the figures for `O=C(O)c1ccc2nc(CN3CCC(c4cccc(OCc5ccc(Cl)cc5F)n4)CC3)n(C[C@@H]3CCO3)c2c1` [reference compound] were 0.412 nM and 7.65 nM.
With `N#Cc1ccc(COc2cccc(C3=CCN(Cc4nc5ccc(C(=O)O)nc5n4C[C@@H]4CCO4)CC3)n2)c(F)c1` [drawing 69], the figures for the EC50 in assay [1] (setting [4]) and in assay [2] (setting [5]) were 0.168 nM and 3.86 nM, respectively.
Taken in the same sequence, the figures for `N#Cc1ccc(COc2cncc(C3CCN(Cc4nc5ccc(C(=O)O)cc5n4C[C@@H]4CCO4)CC3)n2)c(F)c1` [drawing 62, reference compound] were 15.9 nM and 924 ± 230 nM.
Taken in the same sequence, the figures for `N#Cc1ccc(COc2cccc(C3CCN(Cc4nc5ccc(C(=O)O)nc5n4C[C@@H]4CCO4)CC3)n2)c(F)c1` [reference compound] were 0.3 nM and 3.5 nM.
Taken in the same sequence, the figures for `N#Cc1ccc(COc2cncc(C3=CCN(Cc4nc5ccc(C(=O)O)cc5n4C[C@@H]4CCO4)CC3)n2)c(F)c1` [drawing 63] were 9.85 nM and 260 ± 38 nM.
In the case of `O=C(O)c1ccc2nc(CN3CC=C(c4cccc(OCc5ccc(Cl)cc5F)n4)CC3)n(C[C@@H]3CCO3)c2c1` [drawing 65], the results for the concentration giving a half-maximal response (EC50) in assay [1] (setting [4]) and in assay [2] (setting [5]) were 0.393 nM and 3.28 nM, respectively.
Taken in the same sequence, the figures for `O=C(O)c1ccc2nc(CN3CCC(c4cccc(OCc5ccc(Cl)cc5F)c4)CC3)n(C[C@@H]3CCO3)c2c1` [drawing 66, reference compound] were 8.58 nM and 105 ± 32.7 nM.
Taken in the same sequence, the figures for `O=C(O)c1ccc2nc(CN3CCC(c4ccnc(OCc5ccc(Cl)cc5F)n4)CC3)n(C[C@@H]3CCO3)c2c1` [drawing 58, reference compound] were 1.98 nM and 95.8 nM.
Taken in the same sequence, the figures for `O=C(O)c1ccc2nc(CN3CC=C(c4ccnc(OCc5ccc(Cl)cc5F)n4)CC3)n(C[C@@H]3CCO3)c2c1` [drawing 59] were 1.8 nM and 73.7 nM.
Regarding `N#Cc1ccc(COc2nc(C3=CCN(Cc4nc5ccc(C(=O)O)cc5n4C[C@@H]4CCO4)CC3)ccc2F)c(F)c1` [drawing 57], the EC50 is 0.517 nM in assay [1] (setting [4]) and 6.05 nM in assay [2] (setting [5]).
`O=C(O)c1ccc2nc(CN3CC=C(c4cccc(OCc5cccnc5Cl)n4)CC3)n(C[C@@H]3CCO3)c2c1` [Compound 163]: the 50% effective concentration (EC50) in assay [1] (read-out: EC50) was at most 15 nM.
Still for that read-out and setting: next, `O=C(O)c1ccc2nc(CN3CC=C(c4cccc(OCc5ccc(F)cc5F)n4)CC3)n(C[C@@H]3CCO3)c2c1` [Compound 141, (S)-2-((6-((2H-difluorobenzyl)oxy)-5′,6′-dihydro-[2,4′-bipyridin]-1′(2′H)-yl)methyl)-1-(oxetan-2-ylmethyl)-1H-benzo[d]imidazole-6-carboxylic add]: at most 15 nM; `O=C(O)c1ccc2nc(CN3CC=C(c4cccc(OCc5ccncc5)n4)CC3)n(C[C@@H]3CCO3)c2c1` [Compound 160, (S)-1-(oxetan-2-ylmethyl)-2-((6-(pyridin-4-ylmethoxy)-5′,6′-dihydro-[2H′-bipyridin]-1′(2′H)-yl)methyl)-1H-benzo[d]imidazole-6-carboxylic acid]: at most 150 nM.
In the case of `O=C(O)c1ccc2nc(CN3CC=C(c4cccc(N5CCc6cc(Cl)ccc6C5)n4)CC3)n(C[C@@H]3CCO3)c2c1` [Compound 39, (S)-2-((6-(6-chloro-3,4-dihydroisoquinolin-2(1H)-yl)-3′,6′-dihydro-[2,4′-bipyridin]-1′(2′H)-yl)methyl)-1-(oxetan-2-ylmethyl)-1 h-benzo[d]imidazole-6-carboxylic add], the EC50 in assay [1] (read-out: EC50) was at most 150 nM.
The same measure, in the same setting: next, `CC(C)c1ccc(COc2cccc(C3=CCN(Cc4nc5ccc(C(=O)O)cc5n4C[C@@H]4CCO4)CC3)n2)cc1` [Compound 148]: at most 15 nM.
The same measure, in the same setting: next, `O=C(O)c1ccc2nc(CN3CC=C(c4cccc(OCc5ccc6c(c5)OCO6)n4)CC3)n(C[C@@H]3CCO3)c2c1` [Compound 152]: at most 15 nM.
In the case of `O=C(O)c1ccc2nc(CN3CC=C(c4cccc(OCc5ccc(Cl)cc5F)n4)CC3)n(Cc3ncco3)c2c1` [Compound 72, 2-((6-((4-chloro-2-fluorobenzyl)oxy)-3′,6′-dihydro-[2,4′-bipyridin]-1′(2′H)-yl)methyl)-1-(oxazol-2-ylmethyl)-1H-benzo[d]imidazole-6-carboxyli acid], the EC50 in assay [1] (read-out: EC50) was at most 15 nM.
The same measure, in the same setting: next, `O=C(O)c1ccc2nc(CN3CC=C(c4ncc(F)c(NCc5ccc(Cl)cc5F)n4)CC3)n(C[C@@H]3CCO3)c2c1` [Compound 122, (S)-2-((4-(4-(4-chloro-2-fluorobenzylamino)-5-fluoropyrimidin-2-yl)-5,6-dihydropyridin-1(2H)-yl)methyl)-1-(oxetan-2-ylmethyl)-1H-benzo[d]imidazole-6-carboxylic acid]: at most 150 nM; `O=C(O)c1ccc2nc(CN3CC=C(c4cc(OCc5ccc(C#CC6CC6)cc5F)ccc4F)CC3)n(C[C@@H]3CCO3)c2c1` [Compound 208]: at most 150 nM.
Same read-out and setting: as for `O=C(O)c1ccc2nc(CN3CCC(n4c(=O)n(CCc5ccc(Cl)cc5F)c5ccccc54)CC3)n(C[C@@H]3CCO3)c2c1` [Compound 52, (S)-2-((4-(3-(4-chloro-2-fluorophenethyl)-2-oxo-2,3-dihydro-1 h-benzo[d]imidazol-1-yl)piperidin-1-yl)methyl)-1-(oxetan-2-ylmethyl)-1 h-benzo[d]imidazole-6-carboxylic acid], the figure is over 1000 nM.
`N#Cc1ccc(COc2nc(C3=CCN(Cc4nc5ccc(C(=O)O)cc5n4C[C@@H]4CCO4)CC3)c(F)cc2F)c(F)c1` [Compound 212, (S)-2-((6-((4-cyano-2-fluorobenzyl)oxy)-3,5-difluoro-3′,6′-dihydro-[2,4′-bipyridin]-1′(2′H)-yl)methyl)-1-(oxetan-2-ylmethyl)-1H-benzo[d]imidazole-6-carboxylic add]: in assay [1] (read-out: EC50), the EC50 is at most 15 nM.
